Data from ChEMBL document CHEMBL3526000 (Drug Metab Dispos, 2012).

Key:
[1] = biological target: T1, UDP-glucuronosyltransferase 1A7 (Homo sapiens, UniProt Q9HAW7); experiment: Drug metabolism assessed as recombinant human UGT1A7 assessed as O-glucuronidation at 100 uM incubated for 60 mins by LC-MS/MS analysis; assay type: ADME; settings: recombinant enzyme, 1 h
T1 sequence (Q9HAW7 whole entry): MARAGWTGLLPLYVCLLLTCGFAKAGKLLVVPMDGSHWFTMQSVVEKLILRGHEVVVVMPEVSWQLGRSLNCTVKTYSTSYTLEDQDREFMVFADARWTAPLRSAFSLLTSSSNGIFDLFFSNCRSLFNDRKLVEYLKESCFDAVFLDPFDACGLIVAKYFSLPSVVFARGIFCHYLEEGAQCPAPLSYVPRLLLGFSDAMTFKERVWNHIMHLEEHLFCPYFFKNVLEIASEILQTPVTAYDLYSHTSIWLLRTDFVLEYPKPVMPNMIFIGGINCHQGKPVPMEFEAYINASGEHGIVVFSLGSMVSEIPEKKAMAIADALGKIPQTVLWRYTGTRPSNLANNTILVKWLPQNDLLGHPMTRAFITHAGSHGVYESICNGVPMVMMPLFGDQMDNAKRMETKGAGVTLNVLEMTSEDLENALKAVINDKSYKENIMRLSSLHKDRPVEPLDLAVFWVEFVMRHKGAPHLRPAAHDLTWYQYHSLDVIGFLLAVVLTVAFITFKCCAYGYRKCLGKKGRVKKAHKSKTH

[2] = biological target: T1, UDP-glucuronosyltransferase 1A7; experiment: Drug metabolism assessed as recombinant human UGT1A7 assessed as N-glucuronidation at 100 uM incubated for 60 mins by LC-MS/MS analysis; assay type: ADME; settings: recombinant enzyme, 1 h

Drug metabolism [1]: metabolite_not_detected
Drug metabolism [2]: metabolite_not_detected
SMILES: O=C(CCCN1CCC(O)(c2ccc(Cl)cc2)CC1)c1ccc(F)cc1 [HALOPERIDOL]
